From PMC8151276, “An Integrated Approach toward NanoBRET Tracers for Analysis of GPCR Ligand Engagement” (Molecules, 2021)

Biological target: T1, MTNR1A (Homo sapiens, UniProt P48039)
T1 construct: purchased Promega (in-house HiBiT-GPCR construct library, NanoBRET)
Assay: NanoBRET screen HiBiT-MTNR1A in HEK293
Assay type: binding
Protocol: Each tracer candidate was screened across the entire library of HiBiT-GPCR constructs using NanoBRET as the detection modality. As depicted in Figure 4A, the specificity of interactions was evaluated through decrease in BRET due to competitive displacement of a bound tracer by excess parental compound. Each tracer was analyzed for binding to each HiBiT-GPCR fusion in the absence and in the presence of competing parental compound. Briefly, HEK293 cells were transfected with HiBiT-GPCR constructs diluted into promoterless DNA to reduce expression and maximize translocation to the cell surface. Each tracer candidate was then screened at concentrations of 1 μM and 0.1 μM across cells expressing these fusions. Cells were treated for 1.5 h with tracer either alone or in the presence of 20 μM competing parental compound (i.e., control). BRET was measured upon addition of purified LgBiT and subsequent complementation with HiBiT genetically fused to a GPCR. The specificity of interactions was assessed through a decrease in BRET signal due to competitive displacement of the bound tracer. To further gauge the robustness of these interactions, the fold response over the control (i.e., BRETtracer/BRETcontrol) was calculated. We chose a 1.5-fold response, which translates to ≥7-fold signal over noise as the minimal threshold required to score an interaction as positive.
HiBiT-GPCR DNA constructs were diluted in 10 mM Tris pH 8 to a final concentration of 0.01 μg/μL, arrayed in 96-well plates and stored at −20 °C. For transfection, HEK293 cells were suspended in Opti-MEM (without phenol red) supplemented with 2% fetal bovine serum (Seradigm) and 100 units/mL penicillin–streptomycin (Gibco) at a final concentration of 220,000 cells/mL and dispensed into white 96-well plates at 90 μL/well. Subsequent transfections and screens were carried using an Agilent Bravo Automated Liquid Handling Platform. First, the 96-well HiBiT DNA arrays were diluted 25-fold in Opti-MEM (without serum or phenol red) to a final concentration of 0.0004 μg/μL and 20 μL of the diluted DNAs were transferred into new 96-well plates. Next, promoterless carrier DNA (1 μg/μL) was diluted 25-fold (0.04 μg/μL) and then dispensed into the diluted arrays at 20 μL/well. Following brief mixing, Viafect transfection reagent (Promega) diluted 16-fold into Opti-MEM was dispensed into the plates at 40 μL/well. After mixing by pipetting, plates were incubated for 10 min on the pipetting station deck. The DNA-transfection reagent complexes were then added to plates containing cells. To facilitate the screen, 10 μL of DNA-transfection reagent complexes were added in duplicates to the top 4 and bottom 4 rows, resulting in two identical 48-well arrays per plate. Plates with transfected cells were incubated for 18–20 h at 37 °C/5% CO2. A screen of each tracer across the entire library using two different concentrations requires duplicate plates of transfected cells. Depending on the number of tracers being screened, transfections can be scaled up using the same ratios. The next day, for each tracer, four 20× screening solutions in tracer dilution buffer (Promega) were prepared: two duplicates at final concentration of 20 μM and two duplicates at a final concentration of 2 μM. […] The four resulting solutions were diluted 4-fold in Opti-MEM without serum or phenol red to generate 5× solutions (5 µM and 0.5 µM tracer +/− 100 μM competing compound). To screen the library, a BioTek MultiFlo FX liquid dispenser was used to dispense 22.5 µL of tracer solution to the top 4 rows and 22.5 µL tracer + competing compound solution to the 4 bottom rows. Plates were briefly mixed on an orbital shaker and incubated for 1.5 h at room temperature. […] Plates were briefly mixed on an orbital shaker and incubated for 15 min to allow complementation.

T1 sequence (P48039 whole entry): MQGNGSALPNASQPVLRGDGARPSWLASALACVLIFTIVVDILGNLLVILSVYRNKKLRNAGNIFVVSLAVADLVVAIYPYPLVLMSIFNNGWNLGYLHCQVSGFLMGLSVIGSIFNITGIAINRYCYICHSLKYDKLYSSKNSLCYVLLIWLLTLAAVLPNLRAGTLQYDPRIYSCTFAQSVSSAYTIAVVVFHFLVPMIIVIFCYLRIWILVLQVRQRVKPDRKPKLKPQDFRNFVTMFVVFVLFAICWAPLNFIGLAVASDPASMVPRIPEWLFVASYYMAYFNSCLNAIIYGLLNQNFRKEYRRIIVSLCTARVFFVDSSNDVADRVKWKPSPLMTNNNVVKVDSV

| SMILES | NanoBRET Fold Response (MTNR1A, tracer 0.1μM) | NanoBRET Fold Response (MTNR1A, tracer 1μM) | other results |
| --- | --- | --- | --- |
| CCOC(=O)c1cc(C#N)c(N2CCC(C(=O)NS(=O)(=O)Cc3ccccc3/C=C/C(=O)NCCNC(=O)CCc3ccc4n3[B-](F)(F)[N+]3=C(c5ccc[nH]5)C=CC3=C4)CC2)nc1C [AZD1283-1-NB590] | – | – | NanoBRET Fold Response (MTNR1A, 0.1μM): 1.00; NanoBRET Fold Response (MTNR1A, 1μM): 1.00 |
| N#CN=C(NCCCOc1cccc(CN2CCCCC2)c1)NCCNC(=O)CCOCCOCCOCCOCCNC(=O)CCc1ccc2n1[B-](F)(F)[N+]1=C(c3ccc[nH]3)C=CC1=C2 [Aminopotentidine-2-NB590] | 1.00 | 1.00 | – |
| CN(C)CCC=C1c2ccccc2CCc2ccc(C(=O)NCCNC(=O)CCOCCOCCOCCOCCNC(=O)CCc3ccc4n3[B-](F)(F)[N+]3=C(c5ccc[nH]5)C=CC3=C4)cc21 [Amitriptyline-b-2-NB590] | 0.96 | 0.98 | – |
| COc1ccc2c(n1)c(CCNC(C)=O)cn2CCNC(=O)CCc1ccc2n1[B-](F)(F)[N+]1=C(c3ccc[nH]3)C=CC1=C2 [Azamelatonin-1-NB590] | – | – | NanoBRET Fold Response (0.1μM tracer): 1.12; NanoBRET Fold Response (1μM tracer): 1.55 |
| COc1ccc2[nH]c(-c3ccc(CNC(=O)CCOCCOCCOCCOCCNC(=O)CCc4ccc5n4[B-](F)(F)[N+]4=C(c6ccc[nH]6)C=CC4=C5)cc3)c(CCNC(C)=O)c2n1 [AzomelatoninICO9-2-NB590] | – | – | NanoBRET Fold Response (0.1μM tracer): 1.06; NanoBRET Fold Response (1μM tracer): 1.42 |
| O=C(CCOCCOCCOCCOCCNC(=O)CCc1ccc2n1[B-](F)(F)[N+]1=C(c3ccc[nH]3)C=CC1=C2)NCCCN1CCN(C2=Nc3cc(Cl)ccc3Nc3ccccc32)CC1 [Clozapine-a-2-NB590] | – | – | NanoBRET Fold Response (MTNR1A, 0.1μM tracer): 1.03; NanoBRET Fold Response (MTNR1A, 1μM tracer): 1.00 |
| CN1CCN(C2=Nc3cc(Cl)ccc3Nc3ccc(CNC(=O)CCOCCOCCOCCOCCNC(=O)CCc4ccc5n4[B-](F)(F)[N+]4=C(c6ccc[nH]6)C=CC4=C5)cc32)CC1 [Clozapine-b-2-NB590] | – | – | NanoBRET Fold Response (MTNR1A, 1μM tracer): 1.02 |
| CN1CCN(C2=Nc3cc(Cl)ccc3N(CC(=O)NCCOCCOCCOCCOCCNC(=O)CCc3ccc4n3[B-](F)(F)[N+]3=C(c5ccc[nH]5)C=CC3=C4)c3ccccc32)CC1 [Clozapine-c-2-NB590] | – | – | NanoBRET Fold Response (MTNR1A, 0.1μM tracer): 0.97; NanoBRET Fold Response (MTNR1A, 1μM tracer): 1.07 |
| O=C(CCOCCOCCOCCOCCNC(=O)CCc1ccc2n1[B-](F)(F)[N+]1=C(c3ccc[nH]3)C=CC1=C2)NCCCN1CCN(C2=Nc3ccccc3Oc3ccc(Cl)cc32)CC1 [Loxapine-a-2-NB590] | 0.92 | 1.12 | – |
| COc1ccccc1N1CCN(CCCCN2C(=O)c3ccc(CNC(=O)CCOCCOCCOCCOCCNC(=O)CCc4ccc5n4[B-](F)(F)[N+]4=C(c6ccc[nH]6)C=CC4=C5)cc3C2=O)CC1 [NAN-190-2-NB590] | 0.99 | 0.97 | – |
| COc1ccccc1N1CCN(CCCCN2C(=O)c3ccc(CNC(=O)CCOCCNC(=O)c4ccc(CNC(=O)CCc5ccc6n5[B-](F)(F)[N+]5=C(c7ccc[nH]7)C=CC5=C6)cc4)cc3C2=O)CC1 [NAN-190-3-NB590] | 1.01 | 0.80 | – |
| O=C(CCc1ccc2n1[B-](F)(F)[N+]1=C(c3ccc[nH]3)C=CC1=C2)NCc1ccc(C(=O)NCCOCCC(=O)N[C@@H]2CC[C@@]3(O)[C@H]4Cc5ccc(O)c6c5[C@@]3(CCN4CC3CC3)[C@H]2O6)cc1 [Naltrexone-3-NB590] | 0.76 | 1.18 | – |
| Cc1cc2c(s1)Nc1ccccc1N=C2N1CCN(CCCNC(=O)CCOCCOCCOCCOCCNC(=O)CCc2ccc3n2[B-](F)(F)[N+]2=C(c4ccc[nH]4)C=CC2=C3)CC1 [Olanzapine-a-2-NB590] | 1.01 | 1.07 | – |
| O=C(CCc1ccc2n1[B-](F)(F)[N+]1=C(c3ccc[nH]3)C=CC1=C2)NCc1ccc(C(=O)NCCOCCOCCNCC(O)COc2cccc3ccccc23)cc1 (stereo not shown) [Propranolol-3-NB590] | – | – | NanoBRET Fold Response (MTNR1A, 0.1μM): 0.98; NanoBRET Fold Response (MTNR1A, 1μM): 0.94 |
| O=C(CCc1ccc2n1[B-](F)(F)[N+]1=C(c3ccc[nH]3)C=CC1=C2)NCCOCCOCCNC(=O)OCCOCCN1CCN(C2=Nc3ccccc3Sc3ccccc32)CC1 [Quetiapine-a-2-NB590] | 1.00 | 1.05 | – |
| Cc1nc2n(c(=O)c1CCN1CCC(c3noc4cc(F)ccc34)CC1)CCCC2OC(=O)NCCOCCOCCOCCOCCNC(=O)CCc1ccc2n1[B-](F)(F)[N+]1=C(c3ccc[nH]3)C=CC1=C2 (stereo not shown) [Risperidone-2-NB590] | 0.97 | 0.93 | – |
| CC(C)N(CC[C@H](c1ccccc1)c1cc(CCNC(=O)CCOCCOCCOCCOCCNC(=O)CCc2ccc3n2[B-](F)(F)[N+]2=C(c4ccc[nH]4)C=CC2=C3)ccc1O)C(C)C [Tolterodine-2-NB590] | 1.07 | 0.79 | – |
| CC(C)N(CC[C@H](c1ccccc1)c1cc(CCNC(=O)c2ccc(CNC(=O)CCc3ccc4n3[B-](F)(F)[N+]3=C(c5ccc[nH]5)C=CC3=C4)cc2)ccc1O)C(C)C [Tolterodine-BZ-NB590] | 0.97 | 1.03 | – |
| CCCn1c(=O)c2[nH]c(-c3ccc(OCC(=O)NCCNC(=O)CCOCCNC(=O)c4ccc(CNC(=O)CCc5ccc6n5[B-](F)(F)[N+]5=C(c7ccc[nH]7)C=CC5=C6)cc4)cc3)nc2n(CCC)c1=O [XAC-3-NB590] | 1.02 | 1.01 | – |
